Data published in ChEMBL document CHEMBL1148451, “Receptor flexibility in the in silico screening of reagents in the S1' pocket of human collagenase” (J Med Chem, 2004).

Biological target: T1, Interstitial collagenase (Homo sapiens, UniProt P03956)
T1 sequence (P03956 whole entry): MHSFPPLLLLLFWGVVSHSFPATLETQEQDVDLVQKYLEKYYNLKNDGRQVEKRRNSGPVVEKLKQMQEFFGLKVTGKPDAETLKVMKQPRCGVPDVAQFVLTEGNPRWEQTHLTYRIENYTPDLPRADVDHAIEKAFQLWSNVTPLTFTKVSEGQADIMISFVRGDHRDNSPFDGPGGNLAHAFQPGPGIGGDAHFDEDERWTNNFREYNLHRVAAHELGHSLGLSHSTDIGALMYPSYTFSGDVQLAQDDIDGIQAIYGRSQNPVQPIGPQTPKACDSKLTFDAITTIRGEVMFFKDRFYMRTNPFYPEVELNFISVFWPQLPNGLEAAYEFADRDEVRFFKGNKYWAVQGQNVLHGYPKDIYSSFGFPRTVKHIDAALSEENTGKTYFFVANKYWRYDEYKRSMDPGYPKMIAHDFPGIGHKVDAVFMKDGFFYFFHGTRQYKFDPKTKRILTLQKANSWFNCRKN
Experiment: Inhibition of human matrix metalloprotease-1

| SMILES | Ki | IC50 |
| --- | --- | --- |
| O=C(NO)C1CCCCN1S(=O)(=O)N1CCC(Oc2ccc(-n3ccnc3)cc2)CC1 (stereo not given) | 224 nM | – |
| CCCCOc1ccc(S(=O)(=O)N2CC(N3CCOCC3)CC2C(=O)NO)cc1 (stereo not given) | – | 920 nM |
| CNC(=O)C(NC(=O)C(CC(C)C)C(NS(=O)(=O)c1cccc2cccc(=O)n12)C(=O)NO)C(C)(C)C (stereo not given) | – | 1.3 nM |
| O=C(CN(Cc1ccc([N+](=O)[O-])cc1)S(=O)(=O)c1ccc(C(F)(F)F)cc1)NO | 3 nM | – |
| CC#CCOc1ccc(S(=O)(=O)N2CCc3ccccc3C2C(=O)NO)cc1 (stereo not given) | – | 121 nM |
| O=C(NO)C1CCCCN1S(=O)(=O)N1CCN(c2ccccn2)CC1 (stereo not given) | 423 nM | – |
| CC(C)C(NS(=O)(=O)N1CCC(Oc2ccc(Cl)cn2)CC1)C(=O)NO (stereo not given) | – | 360 nM |
| CCOC(=O)[C@H](C)NC(=O)[C@H](CC(C)C)NC(=O)[C@@H](CC(=O)NO)CC(C)C | – | 40 nM |
| O=C(CC1(S(=O)(=O)c2ccc(Oc3ccc(Cl)cc3)cc2)CCOCC1)NO | 70 nM | – |
| Cc1ccc(COc2ccc(S(=O)(=O)N3CCCC(C)(O)C3C(=O)NO)cc2)c(C)c1 (stereo not given) | – | 10 nM |
